# Paper PMC6823370, “A novel nucleoside rescue metabolic pathway may be responsible for therapeutic effect of orally administered cordycepin” (Scientific Reports, 2019)
# Columns and labels:
# [1] = Plasma stability of cordycepin in rat plasma; assay type: in vitro ADME; settings: read-out: ex vivo stability half-life (t1/2) in plasma
# Protocol: (§1) Stability of cordycepin in plasma was tested using human and rat plasma by following a previously reported method with minor modifications. Cordycepin was spiked into the plasma at 10 µM and the samples were incubated in a shaking incubator (Thermo Scientific MaxQ4000, Waltham, MA, USA) at 37 °C and shaken at 250 rpm. Samples (100 µL) were withdrawn at predetermined time points. […] The experiments were performed in triplicates.
# (§2) Samples from studies of plasma stability, protein binding, biorelevant solubility and liver microsomal stability were subjected to liquid-liquid extraction and HPLC-UV analysis. To 100 µL of sample, internal standard (2′-deoxyadenosine) was spiked at 10 µg/mL and 300 µL of 0.1 M NaOH was added. Extraction solvent (3 mL) of ethyl acetate-isopropyl alcohol (85:15, v/v) was added and vortex-mixed for 10 min. Samples were then centrifuged at 1160 g for 5 min and the supernatant was transferred and dried under N2 gas. Dried samples were reconstituted with 100 uL of deionised distilled water (DDW) and 40 µL was injected into the HPLC-UV. The HPLC-UV setup was adopted from a validated method[22] with addition of a gradient scheme to elute the impurities from samples. Waters Alliance 2695 module with Waters 996 PDA detector was used for the HPLC-UV system with Capcell Pak C18 3 µm, 4.6 × 150 mm as the stationary phase. […]
# [2] = Plasma stability of cordycepin in human plasma; assay type: in vitro ADME; settings: read-out: ex vivo stability half-life (t1/2) in plasma
# Protocol: as §1, §2
# [3] = Plasma protein binding, ultrafiltration, rat plasma; assay type: in vitro ADME; settings: read-out: fraction unbound (Fub) in plasma
# Protocol: (§3) Cordycepin was spiked into the plasma to give concentrations of 100, 500, 1000 and 5000 ng/mL, and the samples (300 µL) were incubated in the shaking incubator at 250 rpm and 37 °C for 1 h. Following incubation, 100 µL was withdrawn and analysed for Ct. The remaining sample was transferred to a filter device (Amicon Ultra-0.5 Centrifugal Filter Units, MWCO 3000, Merck Millipore, Cork, Ireland) and was centrifuged at 14,000 g for 10 min at room temperature. Filtrate was collected and analysed for Cf. The fraction unbound in plasma (Fub) was calculated by the equation: Cf/Ct × 100 = Fub. Non-specific binding of cordycepin to the filter device was tested at the same concentration range using phosphate buffered saline (PBS) instead of plasma. Experiments were conducted in quadruplicates.
# (§4) Samples from studies of plasma stability, protein binding, biorelevant solubility and liver microsomal stability were subjected to liquid-liquid extraction and HPLC-UV analysis. To 100 µL of sample, internal standard (2′-deoxyadenosine) was spiked at 10 µg/mL and 300 µL of 0.1 M NaOH was added. Extraction solvent (3 mL) of ethyl acetate-isopropyl alcohol (85:15, v/v) was added and vortex-mixed for 10 min. Samples were then centrifuged at 1160 g for 5 min and the supernatant was transferred and dried under N2 gas. […]
# [4] = Plasma protein binding, ultrafiltration, human plasma; assay type: in vitro ADME; settings: read-out: fraction unbound (Fub) in plasma
# Protocol: as §3, §4
# [5] = Liver microsomal stability, rat liver microsomes; assay type: in vitro ADME; settings: for Fh, parallel-tube model / Fh, well-stirred model / CLint scaled at 1 µM: rat liver microsome, pentostatin −; for CLint scaled at 1 µM: rat, liver microsomes
# Protocol: Human and rat liver microsomes were used in the experiment following previously reported methods[49],[50]. Microsomes were used at 0.5 mg protein/mL and cordycepin was tested at 1 µM. […] The reaction mixture was incubated in the shaking incubator at 37 °C for 30 min with sampling every 10 min. The results of intrinsic clearance and the fraction that escapes hepatic metabolism (by both well-stirred and parallel-tube models) were calculated by previously reported equations and physiological parameters[50]–[52]. The experiments were performed in triplicates.
# Samples from studies of plasma stability, protein binding, biorelevant solubility and liver microsomal stability were subjected to liquid-liquid extraction and HPLC-UV analysis. To 100 µL of sample, internal standard (2′-deoxyadenosine) was spiked at 10 µg/mL and 300 µL of 0.1 M NaOH was added. Extraction solvent (3 mL) of ethyl acetate-isopropyl alcohol (85:15, v/v) was added and vortex-mixed for 10 min. Samples were then centrifuged at 1160 g for 5 min and the supernatant was transferred and dried under N2 gas. Dried samples were reconstituted with 100 uL of deionised distilled water (DDW) and 40 µL was injected into the HPLC-UV. The HPLC-UV setup was adopted from a validated method[22] with addition of a gradient scheme to elute the impurities from samples. Waters Alliance 2695 module with Waters 996 PDA detector was used for the HPLC-UV system with Capcell Pak C18 3 µm, 4.6 × 150 mm as the stationary phase. Mobile phase was a mixture of acetonitrile (A) and DDW (B) at flow rate 0.8 mL/min with a gradient scheme of the following: 0–9 min, B 94%; 9–14 min, B decreased to 20%; 14–24 min, B 20%; 24–26 min, B increased to 94%; and 26–35 min, B 94%. Calibration curves were constructed at a range of 10 – 20000 ng/mL and chromatograms were obtained at 259 nm of wavelength.
# [6] = Sample storage stability of cordycepin in rat plasma containing pentostatin; assay type: in vitro ADME; settings: for Autosampler (24 h, 4°C) sample stability: processed samples; for Freeze-thaw (3 cycles) sample stability / Long-term (4 weeks, -80°C) sample stability / Long-term (5 days, -80°C) sample stability / Short-term (4 h, RT) sample stability: rat plasma with 10 µM pentostatin
# Protocol: Stability of cordycepin was tested in different conditions. […] Samples withdrawn at pre-determined time points were prepared and analysed for stability and degradation rate of cordycepin in rat plasma.
# Sample storage stability studies were conducted with QC samples (LQC, MQC and HQC; 5 replicates for each condition). […] Short-term (benchtop) stability was tested after storing spiked QC samples for 4 h at room temperature. Long-term stability was tested in storage condition of -80 °C for 5 days and 4 weeks. Freeze-thaw cycle stability was tested after undergoing three cycles between -80 °C and room temperature. Autosampler stability was tested by analysing processed QC samples after storage at 4 °C for 24 h. All stability samples were quantified with freshly prepared calibration curve samples. Stock solution stability was tested by analysing five different aliquots of 1000 ng/mL working standard solution stored for 6 h at room temperature and comparing to a fresh working standard solution.
# [7] = parameters: method as in PMID 28560504; settings: previously reported; cited from earlier work
# [8] = text summary over rat and human liver microsomes, without pentostatin
structure (smiles),measurement,setting,value
"Nc1ncnc2c1ncn2[C@@H]1O[C@H](CO)C[C@H]1O [cordycepin, 3′-deoxyadenosine]",half-life at 10 µM,[1],25 ± 0.7 min
same,half-life at 10 µM,[2],25.8 ± 4 min
same,fraction unbound at 1 h,[3],> 0.8
same,fraction unbound at 1 h,[4],> 0.8
same,"Fh, parallel-tube model",[5]; NADPH +,0.1 ± 0.0%
same,"Fh, well-stirred model",[5]; NADPH +,12.4 ± 0.9%
same,"Fh, parallel-tube model",[5]; NADPH −,0.1 ± 0.1%
same,"Fh, well-stirred model",[5]; NADPH −,12.5 ± 1.5%
same,CLint scaled at 1 µM,[5]; NADPH +,23.5 ± 1.88 L/h/kg
same,CLint scaled at 1 µM,[5]; NADPH −,23.4 ± 3.08 L/h/kg
same,"Fh calculated from CLint, parallel-tube model",[5]; [8],~0%
same,"Fh calculated from CLint, well-stirred model",[5]; [8],10–13%
same,"Autosampler (24 h, 4°C) sample stability",[6]; HQC 4000 ng/mL,100.4 ± 3.4
same,Freeze-thaw (3 cycles) sample stability,[6]; HQC 4000 ng/mL,106.7 ± 7.4
same,"Long-term (4 weeks, -80°C) sample stability",[6]; HQC 4000 ng/mL,103.8 ± 1.5
same,"Long-term (5 days, -80°C) sample stability",[6]; HQC 4000 ng/mL,98.6 ± 5.4
same,"Short-term (4 h, RT) sample stability",[6]; HQC 4000 ng/mL,107.4 ± 2.9
same,"Autosampler (24 h, 4°C) sample stability",[6]; LQC 5 ng/mL,113.8 ± 8.9
same,Freeze-thaw (3 cycles) sample stability,[6]; LQC 5 ng/mL,104.5 ± 7.4
same,"Long-term (4 weeks, -80°C) sample stability",[6]; LQC 5 ng/mL,93.5 ± 7.0
same,"Long-term (5 days, -80°C) sample stability",[6]; LQC 5 ng/mL,107.4 ± 3.8
same,"Short-term (4 h, RT) sample stability",[6]; LQC 5 ng/mL,104.7 ± 9.2
same,"Autosampler (24 h, 4°C) sample stability",[6]; MQC 80 ng/mL,91.6 ± 3.6
same,Freeze-thaw (3 cycles) sample stability,[6]; MQC 80 ng/mL,113.1 ± 13.1
same,"Long-term (4 weeks, -80°C) sample stability",[6]; MQC 80 ng/mL,113.5 ± 3.3
same,"Long-term (5 days, -80°C) sample stability",[6]; MQC 80 ng/mL,110.0 ± 3.3
same,"Short-term (4 h, RT) sample stability",[6]; MQC 80 ng/mL,98.2 ± 7.3
same,solubility in water,[7],5.0 ± 0.1 mg/mL
